Literature values, collected in patent US9072786B2, “Method of manufacturing an implantable device” (Endo Pharmaceuticals Solutions Inc., priority 2008, dated 2015).

Experiments:
[1] = hydrophilic-lipophilic balance of the surfactant
[2] = concentration of surfactant at which micelles form

For Sucrose monolaurate, the HLB [1] is listed as roughly 8 and the “CMC” value [2] is listed as 0.2 mM.
For `CCCCCCCC/C=C\CCCCCCCC(=O)OCCOCC(OCCO)C1OCC(OCCO)C1OCCO` (stereo not shown) [Tween 80], the HLB [1] is given as 15 and the “CMC” value [2] is given as 0.012 mM.
